From ChEMBL document CHEMBL1201862, “PubChem BioAssay data set” (2004)
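Assay format: 96-well plates, 48-hour exposure. Abbreviation: GI50, concentration required for 50% inhibition of growth.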 The source made the active and inactive calls. Cut-off read from the data, not from the text of the source: active = GI50 up to about 1.1 µM and inactive = higher.

Tests used:
Assay in all cases: NCI tumour cell line growth inhibition, 48 h
HOP-62 = tested on: HOP-62
OVCAR-3 = tested on: OVCAR-3
MCF7 = tested on: MCF7
UACC-257 = tested on: UACC-257
UACC-62 = tested on: UACC-62
NCI/ADR-RES = tested on: NCI/ADR-RES
SK-MEL-2 = tested on: SK-MEL-2
OVCAR-4 = tested on: OVCAR-4
Hs-578T = tested on: Hs-578T
A549 = tested on: A549
PC-3 = tested on: PC-3
T47D = tested on: T47D
K562 = tested on: K562
786-0 = tested on: 786-0
UO-31 = tested on: UO-31
SNB-19 = tested on: SNB-19
SF-539 = tested on: SF-539
MDA-MB-435 = tested on: MDA-MB-435
M14 = tested on: M14

| SMILES | GI50 (HOP-62) | GI50 (OVCAR-3) | GI50 (MCF7) | GI50 (UACC-257) | GI50 (UACC-62) | GI50 (NCI/ADR-RES) | GI50 (SK-MEL-2) | GI50 (OVCAR-4) | GI50 (Hs-578T) | GI50 (A549) | GI50 (PC-3) | GI50 (T47D) | GI50 (K562) | GI50 (786-0) | GI50 (UO-31) | GI50 (SNB-19) | GI50 (SF-539) | GI50 (MDA-MB-435) | GI50 (M14) |
| --- | --- | --- | --- | --- | --- | --- | --- | --- | --- | --- | --- | --- | --- | --- | --- | --- | --- | --- | --- |
| O=C1c2ccccc2C(=O)N1CCCC(=O)n1cc(F)c(=O)[nH]c1=O | 8.26 µM (inactive) | > 22.7 µM (inactive) | 6.21 µM (inactive) | > 75.2 µM (inactive) | 23.6 µM (inactive) | 7.98 µM (inactive) | > 100 µM (inactive) | > 100 µM (inactive) | > 100 µM (inactive) | 3.6 µM (inactive) | 30.1 µM (inactive) | > 33.7 µM (inactive) | 24.9 µM (inactive) | 14.4 µM (inactive) | 11.4 µM (inactive) | 49.1 µM (inactive) | 7 µM (inactive) | > 37.1 µM (inactive) | 14.5 µM (inactive) |
| Cc1cc(N(CCC#N)CCC#N)ccc1C(/N=N/c1ccccc1)=N\NC(=O)c1cc(Cl)ccc1O | 41.8 µM (inactive) | 18 µM (inactive) | 11.7 µM (inactive) | 18.6 µM (inactive) | 7.71 µM (inactive) | 20.1 µM (inactive) | 32.4 µM (inactive) | 20.7 µM (inactive) | 23.8 µM (inactive) | 29.4 µM (inactive) | 23.5 µM (inactive) | 11.4 µM (inactive) | 22.4 µM (inactive) | 23.9 µM (inactive) | 14.8 µM (inactive) | 49 µM (inactive) | 20.5 µM (inactive) | 36.4 µM (inactive) | 26.4 µM (inactive) |
| COC(=O)c1cc(OC)c(OC)c(OC)c1-c1cc2c(cc1C=O)OCO2 | > 10 µM (inactive) | > 10 µM (inactive) | > 10 µM (inactive) | > 10 µM (inactive) | > 10 µM (inactive) | > 10 µM (inactive) | > 10 µM (inactive) | > 10 µM (inactive) | > 10 µM (inactive) | > 10 µM (inactive) | > 10 µM (inactive) | > 10 µM (inactive) | > 10 µM (inactive) | > 10 µM (inactive) | > 10 µM (inactive) | > 10 µM (inactive) | > 10 µM (inactive) | > 10 µM (inactive) | > 10 µM (inactive) |
| Cc1cc(S(=O)(=O)/N=C(\NN)NNc2cccc(C(F)(F)F)n2)c(S)cc1Cl | 19.6 µM (inactive) | 22.1 µM (inactive) | > 10 µM (inactive) | 32.6 µM (inactive) | 16.7 µM (inactive) | 19.8 µM (inactive) | 25.5 µM (inactive) | 14.4 µM (inactive) | 22.2 µM (inactive) | 22.8 µM (inactive) | 17.3 µM (inactive) | 17.8 µM (inactive) | 22.7 µM (inactive) | 19.4 µM (inactive) | 18.9 µM (inactive) | 24.3 µM (inactive) | 21.5 µM (inactive) | 18.2 µM (inactive) | 17.9 µM (inactive) |
| NS(=O)(=O)c1cc(Cl)c(NC(=S)NC(=O)Nc2ccc(Cl)c(Cl)c2)c(Cl)c1 | > 100 µM (inactive) | 39.6 µM (inactive) | 20.4 µM (inactive) | 29.9 µM (inactive) | 23.1 µM (inactive) | 37.4 µM (inactive) | 25.5 µM (inactive) | 47.4 µM (inactive) | > 100 µM (inactive) | 30.5 µM (inactive) | 33.9 µM (inactive) | 23.8 µM (inactive) | 35.2 µM (inactive) | 39 µM (inactive) | 44.1 µM (inactive) | 42.9 µM (inactive) | 28.6 µM (inactive) | 32.7 µM (inactive) | 27.5 µM (inactive) |
| COc1ccccc1C1C2=C(COC2=O)OC(C)(C)Oc2cc3c(cc21)OCO3 (stereo not drawn) | 4.02 µM (inactive) | 2.73 µM (inactive) | 3.15 µM (inactive) | 6.81 µM (inactive) | 3.37 µM (inactive) | 3.18 µM (inactive) | 4.06 µM (inactive) | 10.3 µM (inactive) | 4.6 µM (inactive) | 5.13 µM (inactive) | 2.19 µM (inactive) | 5.93 µM (inactive) | 1.34 µM (inactive) | 3.83 µM (inactive) | 10 µM (inactive) | 3.8 µM (inactive) | 2.74 µM (inactive) | 0.564 µM (active) | 3.18 µM (inactive) |
| C[C@H]1[C@H](C)CC[C@]2(C(=O)OC3OC(CO)C(O)C(O)C3O)CC[C@]3(C)C(=CC[C@@H]4[C@@]5(C)C[C@@H](O)[C@@H]6OC(=O)c7cc(O)c(O)c(O)c7-c7c(cc(O)c(O)c7O)C(=O)OC[C@@]6(CO)[C@@H]5CC[C@]43C)[C@H]12 (stereo partly drawn) | > 100 µM (inactive) | > 46.1 µM (inactive) | 18.6 µM (inactive) | > 100 µM (inactive) | > 87.7 µM (inactive) | > 100 µM (inactive) | > 100 µM (inactive) | 23.9 µM (inactive) | > 100 µM (inactive) | > 100 µM (inactive) | > 88.3 µM (inactive) | > 100 µM (inactive) | 32.7 µM (inactive) | 23.2 µM (inactive) | 43.1 µM (inactive) | > 100 µM (inactive) | > 100 µM (inactive) | 19.6 µM (inactive) | > 100 µM (inactive) |
